For series [1] the following is noted: amide bond, TBTU/Et3N, DCM, 20.0 °C.
For series [2] the following is noted: from Cc1cc(C(=O)O)cc(-c2cnn(C)c2CCCC[C@@H](C)Cn2c(N)nc3ccc(Br)cc32)n1; amide bond; TBTU, TEA; DCM; 2.75 mM; 20.0 °C; 2.0 h.
For series [3], the target named is EGFR^L858R/T790M/C797S (Homo sapiens, UniProt P00533, C797S/L858R/T790M). Briefly: HTRF KinEASE-TK in vitro kinase assay, KINASE LTC. The series is classed as biochemical. The text has this:
(§1) The biological activity of compounds described herein were studied according to standard methods known in the art. Methods were used to study inhibition of EGFR, including mutant forms of EGFR comprising L858R, T790M, C797S, and/or Del19 mutations, or any combination thereof (e.g., L858R single, double, or triple mutants). Exemplary, non-limiting methods are described herein.
(§2) Assays using an in vitro kinase assay kit (HTRF KinEASE-TK kit) were used to study the inhibitory activity of compounds described herein with respect to EGFR mutants such as (1) EGFRL858R, (2) EGFR^L858R/T790M, and (3) EGFR^L858R/T790M/C797S.
(In general: In TR-FRET formats the signal depends on donor and acceptor labels being close together.)

The target in series [4] is EGFR^L858R/T790M (Homo sapiens, UniProt P00533, L858R/T790M). Nature of the series: HTRF KinEASE-TK in vitro kinase assay, KINASE LT. The series is classed as biochemical.
Text: as §1, §2

The target in series [5] is EGFRL858R (Homo sapiens, UniProt P00533, L858R). Nature of the series: HTRF KinEASE-TK in vitro kinase assay, KINASE L. The following applies: EGFR L858R kinase. The format is biochemical.
Text: as §1, §2

Series [6] deals with Ba/F3 EGFR-Del19/T790M/C797S (Homo sapiens, UniProt P00533, T790M/C797S, cells depend on it, form not given). Nature of the series: Ba/F3 viability assay (CellTiter-Glo), BAF3 DTC. The format is cell-based. The following applies: Ba/F3 EGFR-Del19/T790M/C797S cell viability.
Text: as §1
(§3) Inhibition of cell proliferation was studied using Ba/F3 viability assays, including the Promega CellTiter-Glo cell viability assay. This assay was used to study the effect of compounds described herein in the following assays: (1) Ba/F3 EGFR-Del19/T790M; (2); Ba/F3 EGFR-Del19/C797S; and (3) Ba/F3 EGFR-Del19/T790M/C797S. P-EGFR Signaling Assays
For orientation: Cellular ATP, detected with luciferase, serves as a proxy for viable cell number.

For series [7], the target named is Ba/F3 EGFR-Del19/T790M (Homo sapiens, UniProt P00533, T790M, cells depend on it, form not given). Nature of the series: Ba/F3 viability assay (CellTiter-Glo), BAF3 DT. The series is classed as cell-based. The following applies: Ba/F3 EGFR-Del19/T790M cell viability.
Text: as §1, §3

Series [8] deals with Ba/F3 EGFR-Del19/C797S (Homo sapiens, UniProt P00533, C797S, cells depend on it, form not given). Nature of the series: Ba/F3 viability assay (CellTiter-Glo), BAF3 DC. The following applies: Ba/F3 EGFR-Del19/C797S cell viability. The format is cell-based.
Text: as §1, §3

Here are results for eleven compounds from patent US20240199614A1, “MACROCYCLIC EGFR INHIBITORS FOR THE TREATMENT OF CANCER” (Theseus Pharmaceuticals, Inc., priority 2021, published 2024).

Where two headings read alike, the source gives them in different places.

Ba/F3 EGFR-Del19/T790M/C797S, sequence (P00533 with tags, fused parts or gaps DEL746-750/T790M/C797S, form open): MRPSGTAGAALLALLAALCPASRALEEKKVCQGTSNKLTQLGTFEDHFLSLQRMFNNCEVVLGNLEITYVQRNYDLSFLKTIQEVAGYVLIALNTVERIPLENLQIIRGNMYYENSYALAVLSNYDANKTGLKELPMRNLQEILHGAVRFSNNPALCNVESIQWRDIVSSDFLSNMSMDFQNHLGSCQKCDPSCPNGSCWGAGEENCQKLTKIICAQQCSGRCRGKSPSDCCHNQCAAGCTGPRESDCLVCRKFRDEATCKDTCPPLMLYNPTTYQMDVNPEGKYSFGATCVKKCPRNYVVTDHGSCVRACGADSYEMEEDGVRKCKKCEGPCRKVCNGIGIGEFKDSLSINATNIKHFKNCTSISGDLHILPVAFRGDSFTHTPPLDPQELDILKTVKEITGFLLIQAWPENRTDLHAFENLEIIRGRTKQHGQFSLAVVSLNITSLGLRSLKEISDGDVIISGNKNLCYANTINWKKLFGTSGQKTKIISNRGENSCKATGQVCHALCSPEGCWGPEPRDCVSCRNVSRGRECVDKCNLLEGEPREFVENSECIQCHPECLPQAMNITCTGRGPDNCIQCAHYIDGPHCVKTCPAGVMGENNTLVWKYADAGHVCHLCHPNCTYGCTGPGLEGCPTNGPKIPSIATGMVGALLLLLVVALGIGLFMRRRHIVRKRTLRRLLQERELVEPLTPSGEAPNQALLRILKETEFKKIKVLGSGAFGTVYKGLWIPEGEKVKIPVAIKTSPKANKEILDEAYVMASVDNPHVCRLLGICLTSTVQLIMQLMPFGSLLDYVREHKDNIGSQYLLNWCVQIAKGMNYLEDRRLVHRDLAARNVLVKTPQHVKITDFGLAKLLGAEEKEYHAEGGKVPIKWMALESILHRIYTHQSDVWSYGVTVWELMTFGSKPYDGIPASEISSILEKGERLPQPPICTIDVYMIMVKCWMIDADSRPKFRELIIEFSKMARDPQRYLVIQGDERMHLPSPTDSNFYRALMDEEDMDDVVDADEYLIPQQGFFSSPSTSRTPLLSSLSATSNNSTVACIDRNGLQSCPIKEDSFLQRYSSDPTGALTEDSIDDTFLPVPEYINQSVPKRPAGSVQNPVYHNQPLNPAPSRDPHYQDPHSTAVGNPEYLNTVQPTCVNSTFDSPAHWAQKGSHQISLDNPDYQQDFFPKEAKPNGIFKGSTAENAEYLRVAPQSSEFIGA
Ba/F3 EGFR-Del19/T790M, sequence (P00533 with tags, fused parts or gaps DEL746-750/T790M, form open): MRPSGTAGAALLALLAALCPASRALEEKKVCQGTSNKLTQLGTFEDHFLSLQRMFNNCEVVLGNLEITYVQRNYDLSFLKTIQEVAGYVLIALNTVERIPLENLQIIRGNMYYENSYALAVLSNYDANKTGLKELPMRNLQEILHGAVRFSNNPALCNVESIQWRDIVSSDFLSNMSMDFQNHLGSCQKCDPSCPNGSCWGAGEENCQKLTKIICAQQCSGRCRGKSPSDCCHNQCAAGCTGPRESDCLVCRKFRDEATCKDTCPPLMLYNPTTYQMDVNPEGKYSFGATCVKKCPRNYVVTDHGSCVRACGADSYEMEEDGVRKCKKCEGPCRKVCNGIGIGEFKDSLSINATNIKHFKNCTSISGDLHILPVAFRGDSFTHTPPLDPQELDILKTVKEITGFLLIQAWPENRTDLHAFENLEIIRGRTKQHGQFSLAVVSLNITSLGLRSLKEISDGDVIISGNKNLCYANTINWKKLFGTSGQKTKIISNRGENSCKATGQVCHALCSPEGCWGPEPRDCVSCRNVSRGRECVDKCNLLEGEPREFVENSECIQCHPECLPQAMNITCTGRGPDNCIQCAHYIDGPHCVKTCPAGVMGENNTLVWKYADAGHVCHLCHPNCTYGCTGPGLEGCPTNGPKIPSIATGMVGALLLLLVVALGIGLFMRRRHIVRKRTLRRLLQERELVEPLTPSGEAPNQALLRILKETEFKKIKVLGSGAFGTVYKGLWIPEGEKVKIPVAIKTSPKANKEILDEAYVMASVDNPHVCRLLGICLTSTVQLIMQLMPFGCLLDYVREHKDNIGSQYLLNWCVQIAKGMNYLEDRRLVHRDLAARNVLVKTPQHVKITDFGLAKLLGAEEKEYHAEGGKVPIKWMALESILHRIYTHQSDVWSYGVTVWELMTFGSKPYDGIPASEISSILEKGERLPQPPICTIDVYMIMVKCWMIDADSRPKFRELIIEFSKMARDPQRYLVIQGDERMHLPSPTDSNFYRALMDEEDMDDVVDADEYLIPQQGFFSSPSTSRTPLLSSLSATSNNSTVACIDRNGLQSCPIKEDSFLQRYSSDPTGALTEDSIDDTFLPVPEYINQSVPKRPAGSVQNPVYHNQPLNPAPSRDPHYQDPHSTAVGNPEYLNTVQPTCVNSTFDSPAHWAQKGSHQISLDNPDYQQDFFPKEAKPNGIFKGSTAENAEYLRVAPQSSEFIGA
EGFR^L858R/T790M/C797S, sequence (P00533 25-1210 T790M/C797S/L858R): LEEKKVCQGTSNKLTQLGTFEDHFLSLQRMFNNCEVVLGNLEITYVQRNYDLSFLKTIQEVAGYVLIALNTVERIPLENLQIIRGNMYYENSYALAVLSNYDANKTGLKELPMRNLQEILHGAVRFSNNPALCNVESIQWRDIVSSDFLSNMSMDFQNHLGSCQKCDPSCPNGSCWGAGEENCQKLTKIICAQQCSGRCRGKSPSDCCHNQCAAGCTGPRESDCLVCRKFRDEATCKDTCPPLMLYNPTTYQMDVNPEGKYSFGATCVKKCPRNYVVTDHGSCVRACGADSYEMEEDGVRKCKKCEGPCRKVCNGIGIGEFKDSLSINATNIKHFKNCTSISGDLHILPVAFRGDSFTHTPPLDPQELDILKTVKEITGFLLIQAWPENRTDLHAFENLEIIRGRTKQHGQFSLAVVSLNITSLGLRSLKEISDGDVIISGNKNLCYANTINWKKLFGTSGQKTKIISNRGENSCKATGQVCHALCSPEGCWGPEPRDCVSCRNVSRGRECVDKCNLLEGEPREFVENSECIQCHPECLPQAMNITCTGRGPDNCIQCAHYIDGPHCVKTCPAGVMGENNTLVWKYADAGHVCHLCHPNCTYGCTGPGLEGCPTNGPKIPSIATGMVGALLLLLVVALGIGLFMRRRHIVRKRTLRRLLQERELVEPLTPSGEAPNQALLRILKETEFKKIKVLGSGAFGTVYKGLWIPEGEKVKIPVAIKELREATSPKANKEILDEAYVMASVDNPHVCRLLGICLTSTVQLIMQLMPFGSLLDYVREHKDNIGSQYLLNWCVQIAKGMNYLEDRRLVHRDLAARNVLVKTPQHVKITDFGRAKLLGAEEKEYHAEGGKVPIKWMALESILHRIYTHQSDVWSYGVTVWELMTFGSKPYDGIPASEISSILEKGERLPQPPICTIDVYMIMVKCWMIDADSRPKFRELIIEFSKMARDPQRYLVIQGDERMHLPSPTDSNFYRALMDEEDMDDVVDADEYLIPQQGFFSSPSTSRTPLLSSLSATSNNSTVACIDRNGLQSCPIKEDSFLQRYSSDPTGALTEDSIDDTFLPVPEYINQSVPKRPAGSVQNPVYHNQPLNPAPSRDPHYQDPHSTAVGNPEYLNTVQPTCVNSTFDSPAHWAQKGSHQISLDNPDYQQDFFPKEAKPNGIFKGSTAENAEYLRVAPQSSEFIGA
EGFRL858R, sequence (P00533 25-1210 L858R): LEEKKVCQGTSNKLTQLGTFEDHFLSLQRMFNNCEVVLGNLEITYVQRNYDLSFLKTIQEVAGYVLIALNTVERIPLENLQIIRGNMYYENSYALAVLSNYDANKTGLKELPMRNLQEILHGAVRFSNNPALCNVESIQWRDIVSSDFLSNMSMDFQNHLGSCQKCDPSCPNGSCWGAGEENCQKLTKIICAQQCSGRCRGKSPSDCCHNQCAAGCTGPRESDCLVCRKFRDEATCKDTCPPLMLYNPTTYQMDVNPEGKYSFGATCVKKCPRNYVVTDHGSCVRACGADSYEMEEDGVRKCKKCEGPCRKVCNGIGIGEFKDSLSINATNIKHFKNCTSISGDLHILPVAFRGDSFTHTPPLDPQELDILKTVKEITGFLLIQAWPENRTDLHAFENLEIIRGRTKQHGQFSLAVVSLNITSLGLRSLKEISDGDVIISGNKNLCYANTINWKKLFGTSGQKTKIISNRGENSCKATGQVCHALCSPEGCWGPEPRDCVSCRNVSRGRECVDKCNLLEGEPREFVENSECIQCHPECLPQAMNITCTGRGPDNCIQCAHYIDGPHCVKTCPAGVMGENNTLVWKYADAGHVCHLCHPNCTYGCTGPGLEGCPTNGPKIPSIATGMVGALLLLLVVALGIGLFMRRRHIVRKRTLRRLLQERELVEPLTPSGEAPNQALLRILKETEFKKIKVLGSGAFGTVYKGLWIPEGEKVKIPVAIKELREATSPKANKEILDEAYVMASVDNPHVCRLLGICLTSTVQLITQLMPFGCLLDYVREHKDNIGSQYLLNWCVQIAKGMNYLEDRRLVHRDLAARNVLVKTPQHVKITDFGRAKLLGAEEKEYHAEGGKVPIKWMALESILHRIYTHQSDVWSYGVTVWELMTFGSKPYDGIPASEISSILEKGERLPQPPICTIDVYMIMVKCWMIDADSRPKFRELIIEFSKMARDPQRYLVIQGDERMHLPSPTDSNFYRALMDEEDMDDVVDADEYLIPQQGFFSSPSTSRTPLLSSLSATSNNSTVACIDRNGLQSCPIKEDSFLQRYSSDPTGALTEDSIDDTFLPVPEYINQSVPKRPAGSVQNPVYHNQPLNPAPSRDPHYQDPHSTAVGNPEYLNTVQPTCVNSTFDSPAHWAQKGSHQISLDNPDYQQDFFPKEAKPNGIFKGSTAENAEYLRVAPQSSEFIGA

Regarding `Cc1cc2cc(n1)-c1cnn(C)c1CCCC[C@@H](C)Cn1c(nc3ccc(Br)cc31)NC2=O`, the ring closure, isolated yield in series [1] (from Cc1cc(C(=O)O)cc(-c2cnn(C)c2CCCC[C@@H](C)Cn2c(N)nc3ccc(Br)cc32)n1, 15-membered ring, 2.75 mM) was 72.7%. Besides, the ring closure, yield of all isomers in series [2] was 72.7%.
In turn, `Cc1cc2cc(n1)-c1cnn(C)c1CCC[C@@H](C)CN1/C(=N/C2=O)Nc2ccc(Br)cc21` gave a ring closure, isolated yield in series [1] (from Cc1cc(C(=O)O)cc(-c2cnn(C)c2CCC[C@@H](C)Cn2c(N)nc3ccc(Br)cc32)n1, 14-membered ring, 5.05 mM) of 60.5%.
In the case of `Cc1cc2cc(n1)-c1cnn(C)c1CCC[C@@H](C)CN1/C(=N/C2=O)Nc2c(C)cc(N3CCN(C)CC3)cc21` [(2)], the IC50 in series [3], in series [4] and in series [5] was less than 50 nM in each case. In addition, the GI50 was less than 50 nM in series [6], less than 50 nM in series [7] and 50 to 100 nM in series [8].
For `COc1cc(N2CCN(C)CC2)cc2c1N/C1=N\C(=O)c3cc(C)nc(c3)-c3cnn(C)c3CCC[C@@H](C)CN12` [(3)], the IC50 in series [3], in series [4] and in series [5] was less than 50 nM each time. The GI50 was less than 50 nM in series [6], 50 to 100 nM in series [7] and 100 to 1000 nM in series [8].
As to `Cc1cc2cc(n1)-c1cnn(C)c1CCC[C@@H](C)CN1/C(=N/C2=O)Nc2ccc(N3CCC(N4CC[C@H](N(C)C)C4)CC3)cc21` [(4)], the IC50 in series [3], in series [4] and in series [5] was less than 50 nM throughout. Besides, the concentration for 50% growth inhibition (GI50) in series [6], in series [7] and in series [8] was less than 50 nM each time.
Regarding `COc1ccncc1-c1ccc2c(c1)N1C[C@H](C)CCCc3c(cnn3C)-c3cc(cc(C)n3)C(=O)/N=C/1N2` [(9)], the IC50 in series [3], in series [4] and in series [5] was less than 50 nM in each case. In addition, the GI50 in series [6], in series [7] and in series [8] was less than 50 nM throughout.
With `Cc1cc2cc(n1)-c1cnn(C)c1CCC[C@@H](C)CN1/C(=N/C2=O)Nc2ccc(N3C[C@@H](C)N(C)[C@@H](C)C3)cc21` [(11)], the IC50 in series [3], in series [4] and in series [5] was less than 50 nM each time. For the same compound, the GI50 in series [6], in series [7] and in series [8] was less than 50 nM each time.
`Cc1cc2cc(n1)-c1cnn(C)c1CCC[C@@H](C)CN1/C(=N/C2=O)Nc2ccc(OC3CCNCC3)cc21` [(15)]: the half-inhibitory concentration (IC50) in series [3], in series [4] and in series [5] was less than 50 nM in each case. The GI50 in series [6], in series [7] and in series [8] was less than 50 nM throughout.
As to `Cc1cc2cc(n1)-c1cnn(C)c1CCC[C@@H](C)CN1/C(=N/C2=O)Nc2ccc(N(CCN(C)C)CC3COC3)cc21` [(18)], the IC50 in series [3], in series [4] and in series [5] was less than 50 nM each time. For the same compound, the concentration for 50% growth inhibition (GI50) in series [6] is less than 50 nM; in series [7] it was 50 to 100 nM; in series [8], 100 to 1000 nM.
As for `Cc1cc2cc(n1)-c1cnn(C)c1CCC[C@@H](C)CN1/C(=N/C2=O)Nc2ccc(N3CCC(N4CCOCC4)CC3)cc21` [(24)], the half-maximal inhibitory concentration (IC50) in series [3], in series [4] and in series [5] was less than 50 nM throughout. The 50% growth inhibitory concentration (GI50) in series [6], in series [7] and in series [8] was less than 50 nM each time.
For `Cc1cc2cc(n1)-c1cnn(C)c1CCC[C@@H](C)CN1/C(=N/C2=O)Nc2ccc(CN3CCN(CCF)CC3)cc21` [(25)], the IC50 in series [3], in series [4] and in series [5] was less than 50 nM each time. In addition, the GI50 in series [6], in series [7] and in series [8] was less than 50 nM in each case.

By IC50 is commonly meant the concentration that gives 50% inhibition. What is called GI50 is the concentration that inhibits growth by half.
